pKd: −log10 of the molar value. Where two headings read alike, the source gives them in different places. No end group written: not given here.
Tests used:
purified VDAC1 [1] = target: T1, purified VDAC1 (Homo sapiens, UniProt P21796); test: Microscale thermophoresis (MST); assay type: binding
Procedure: MST analysis was performed using a NanoTemper Monolith NT.115 apparatus as described previously. Briefly, purified VDAC1 was fluorescently labeled using a NanoTemper Protein labeling kit BLUE (L001, NanoTemper Technologies, Munich, Germany). A constant concentration of the protein (66 nM) was incubated with different concentrations of the indicated peptide in MST binding buffer (10 mM tricine-HCl, 100 mM NaCl, pH = 7.4) for 30 min at 37 °C in the dark. Afterwards, 3–5 µl of the samples were loaded into a monolith glass capillary (NanoTemper) and a thermophoresis analysis was performed (LED 80%, IR laser 80%).

purified VDAC1 [2] = target: T1, purified VDAC1; test: Glass-bound peptide array probed with purified VDAC1 and anti-VDAC1 antibodies; assay type: binding; set-up: key: +: low; ++: medium; +++: high; conditions: glass-bound peptide array incubated 4 h with purified VDAC1 (64 nM), chemiluminescence; for Spot intensity, detected using anti-N-terminus VDAC1: antibody against VDAC1 N-terminus; for Spot intensity, detected using anti-VDAC1 internal sequence: antibody against VDAC1 amino acids 150-250
Procedure: A customized peptide array was produced by INTAVIS Peptide Services (GmbH & Co. KG, Tübingen, Germany). It comprised 768 peptide sequences derived from 19 VDAC1-interacting proteins that were arrayed on a glass slide. Each peptide was composed of 25 amino acids with an overlap of 15 amino acids with the peptides before and following it.
The interaction of purified VDAC1 with glass-bound peptide arrays was assessed by washing the slide three times, 10 min each, with TBST (150 mM NaCl, 50 mM Tris/HCl, pH 7.4, 0.1% Tween-20), followed by overnight incubation with blocking buffer (TBS, pH 7.8, containing low-fat dry milk, 2.5%, w/v) at 4 °C. Then slides were incubated with purified VDAC1 in protein-interacting buffer (20 mM HEPES, 100 mM KCl, pH,7.4, PBS) for 4 h at room temperature (RT). After washing, with TBST, slides were incubated overnight at 4 °C with anti-VDAC1 antibody against a sequence of 150–250 amino acids or against the VDAC1-N-terminus. Slides were then washed with TBST, followed by the appropriate secondary anti-HRP conjugated antibody for 2 h at RT. They were washed again with TBST and developed using enhanced chemiluminescence EZ-ECL (Biological Industries), according to the manufacturer’s instructions. The signal was captured in the dark using FUSION-FX (Vilber Lourmat) software.

T1 sequence (P21796 whole entry, species assumed): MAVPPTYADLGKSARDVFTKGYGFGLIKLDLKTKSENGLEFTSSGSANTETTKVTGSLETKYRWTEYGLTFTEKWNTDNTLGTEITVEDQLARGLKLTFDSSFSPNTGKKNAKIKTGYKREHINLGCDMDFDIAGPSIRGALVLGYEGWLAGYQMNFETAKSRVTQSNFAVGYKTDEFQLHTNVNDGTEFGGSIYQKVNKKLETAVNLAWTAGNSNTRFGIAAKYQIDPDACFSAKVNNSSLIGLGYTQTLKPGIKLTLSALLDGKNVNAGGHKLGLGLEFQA

Sequence: NEFGYSNRVVDLMAHMASKE [2D1]
- pKd (purified VDAC1 [1]; fluorescently labeled VDAC1 66 nM, peptide 2.5-30 µM, 30 min at 37 °C, read-out: Kd): 5.10

Sequence: MVVEHPEFLKAGKEPGLQIWRVEKFRQIKIWFQNRRMKWKK [2G8-Antp]
- pKd (purified VDAC1 [1]): 5.30

Sequence: PASTGAAKAVGKVIPELNGKLTGMA [2C13, array peptide from GAPDH1]
- Spot intensity, detected using anti-N-terminus VDAC1 (purified VDAC1 [2]): +

Sequence: NMKLTRAQFEGIVTDLIRRTIAPCQ [2O9, array peptide from HSP-70]
- Spot intensity, detected using anti-N-terminus VDAC1 (purified VDAC1 [2]): +
- Spot intensity, detected using anti-VDAC1 internal sequence (purified VDAC1 [2]): ++

Sequence: VGKSGTEREFRGLGDCLVKITKSDG [1G4, array peptide from ANT3]
- Spot intensity, detected using anti-N-terminus VDAC1 (purified VDAC1 [2]): +++

Sequence: IKKKEERADLIAYLKKATNE [1D16, array peptide from cytochrome c]
- Spot intensity, detected using anti-N-terminus VDAC1 (purified VDAC1 [2]): ++
- Spot intensity, detected using anti-VDAC1 internal sequence (purified VDAC1 [2]): +

Sequence: ALSSQHQARIEIESFYEGEDFSETL [2L3, array peptide from BiP1]
- Spot intensity, detected using anti-N-terminus VDAC1 (purified VDAC1 [2]): ++

Sequence: AAAATTVAWYQVSPLAARLLYPYLA [1H10, array peptide from TSPO]
- Spot intensity, detected using anti-VDAC1 internal sequence (purified VDAC1 [2]): ++

Sequence: TPVQSRVVQGKEPAHLMSLFGGKPM [2I12, array peptide from gelsolin isoform b]
- Spot intensity, detected using anti-N-terminus VDAC1 (purified VDAC1 [2]): +

Sequence: ERPLTKDNHLLGTFDLTGIPPAPRG [2L22, array peptide from BiP1]
- Spot intensity, detected using anti-N-terminus VDAC1 (purified VDAC1 [2]): ++
- Spot intensity, detected using anti-VDAC1 internal sequence (purified VDAC1 [2]): +

Sequence: TVPTPHLDGKHVVFGQVIKGIGVAR [1I7, array peptide from cyclophilin D]
- Spot intensity, detected using anti-N-terminus VDAC1 (purified VDAC1 [2]): +

Sequence: DELYRQSLEIISRYLREQATGAKDT [2D23, array peptide from Mcl-1]
- Spot intensity, detected using anti-VDAC1 internal sequence (purified VDAC1 [2]): +

Sequence: GRTWNDPSVQQDIKFLPFKVVEKKT [2K5, array peptide from BiP1]
- Spot intensity, detected using anti-N-terminus VDAC1 (purified VDAC1 [2]): +

Sequence: FRDEGGKAFFKGAWSNVLRGMGGAF [1G17, array peptide from ANT3]
- Spot intensity, detected using anti-N-terminus VDAC1 (purified VDAC1 [2]): +

Sequence: DQGGWGLPLAESLKRLMSLSPGRPP [1B13, array peptide from BAX]
- Spot intensity, detected using anti-N-terminus VDAC1 (purified VDAC1 [2]): +++
- Spot intensity, detected using anti-VDAC1 internal sequence (purified VDAC1 [2]): +

Sequence: HSSYPAGTEDDEGMGEEPSPFRGRS [1A9, array peptide from BAD]
- Spot intensity, detected using anti-N-terminus VDAC1 (purified VDAC1 [2]): ++

Sequence: AKYDDIKKVVKQASEGPLKGILGYT [2C18, array peptide from GAPDH1]
- Spot intensity, detected using anti-N-terminus VDAC1 (purified VDAC1 [2]): +++
- Spot intensity, detected using anti-VDAC1 internal sequence (purified VDAC1 [2]): ++

Sequence: AIYDICRRNLDIERPTYTNLNRLIS [2A11, array peptide from tubulin alpha 1b]
- Spot intensity, detected using anti-N-terminus VDAC1 (purified VDAC1 [2]): +++
- Spot intensity, detected using anti-VDAC1 internal sequence (purified VDAC1 [2]): +

Sequence: RAVQHREVQGFESATFLGYFKSGLK [2G18, array peptide from gelsolin isoform b]
- Spot intensity, detected using anti-N-terminus VDAC1 (purified VDAC1 [2]): +

Sequence: DQCTGLQGFLVFHSFGGGTGSGFTS [2A2, array peptide from tubulin alpha 1b]
- Spot intensity, detected using anti-N-terminus VDAC1 (purified VDAC1 [2]): +

Sequence: FKDKYKQIFLGGVDKHTQFWRYFAG [1F22, array peptide from ANT3]
- Spot intensity, detected using anti-N-terminus VDAC1 (purified VDAC1 [2]): +

Sequence: RERLLGWIQDQGGWGLPLAESLKRL [1B12, array peptide from BAX]
- Spot intensity, detected using anti-N-terminus VDAC1 (purified VDAC1 [2]): +++
- Spot intensity, detected using anti-VDAC1 internal sequence (purified VDAC1 [2]): +

Sequence: STRIQQQLGQLTLENLQMLPESEDE [2G1]
- Spot intensity, detected using anti-N-terminus VDAC1 (purified VDAC1 [2]): ++

Sequence: LIGIPPAPRGVPQIEVTFDIDANGI [2P3, array peptide from HSP-70]
- Spot intensity, detected using anti-N-terminus VDAC1 (purified VDAC1 [2]): +

Sequence: KIISNASCTTNCLAPLAKVIHDNFG [2C6, array peptide from GAPDH1]
- Spot intensity, detected using anti-N-terminus VDAC1 (purified VDAC1 [2]): +++
- Spot intensity, detected using anti-VDAC1 internal sequence (purified VDAC1 [2]): ++

Sequence: SKLVLKALCTKVPELIRTIMGWTLD [1B9, array peptide from BAX]
- Spot intensity, detected using anti-N-terminus VDAC1 (purified VDAC1 [2]): +

Sequence: VDCIVRIPKEQGVLSFWRGNLANVI [1F18, array peptide from ANT3]
- Spot intensity, detected using anti-N-terminus VDAC1 (purified VDAC1 [2]): ++

Sequence: FVDWCPTGFKVGINYQPPTVVPGGD [2B2, array peptide from tubulin alpha 1b]
- Spot intensity, detected using anti-N-terminus VDAC1 (purified VDAC1 [2]): +

Sequence: TAFQGMLRKLDIKNEDDVKSLSRVM [2E5, array peptide from Mcl-1]
- Spot intensity, detected using anti-N-terminus VDAC1 (purified VDAC1 [2]): +
